Measurements as given in ChEMBL document CHEMBL1201862, “PubChem BioAssay data set” (2004).
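Assay format: 96-well plates, 48-hour exposure. The concentration for 50% growth inhibition is given as GI50.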 Calls of active or inactive are those of the source. No stated cut-off is given here; in the data, active = GI50 up to about 1.1 µM and inactive = higher.

Legend:
Experiment in all cases: growth of human tumour cells (NCI), 48 h
A549 = tested on: A549
CAKI-1 = tested on: CAKI-1
HOP-62 = tested on: HOP-62
HT-29 = tested on: HT-29
IGROV-1 = tested on: IGROV-1
KM12 = tested on: KM12
LOX IMVI = tested on: LOX IMVI
M14 = tested on: M14
NCI-H226 = tested on: NCI-H226
OVCAR-8 = tested on: OVCAR-8
SF-295 = tested on: SF-295
SK-MEL-5 = tested on: SK-MEL-5
SK-OV-3 = tested on: SK-OV-3
SR = tested on: SR
UO-31 = tested on: UO-31
RPMI-8226 = tested on: RPMI-8226

Measured: GI50

CCCCN(CCCC)CCCn1cnc2ncccc2c1=O
inactive: A549 > 100 µM | CAKI-1 > 100 µM | HOP-62 > 100 µM | HT-29 > 100 µM | IGROV-1 > 100 µM | KM12 > 100 µM | LOX IMVI > 100 µM | M14 > 100 µM | NCI-H226 > 100 µM | OVCAR-8 > 100 µM | SF-295 > 100 µM | SK-MEL-5 72.6 µM | SK-OV-3 > 100 µM | SR > 100 µM | UO-31 > 100 µM

CC(C)(C)C(=O)Nc1ccccc1Br
inactive: A549 > 100 µM | CAKI-1 > 100 µM | HOP-62 > 100 µM | HT-29 > 100 µM | IGROV-1 > 100 µM | KM12 > 100 µM | LOX IMVI > 100 µM | M14 > 100 µM | NCI-H226 > 100 µM | OVCAR-8 > 100 µM | RPMI-8226 > 100 µM | SF-295 > 100 µM | SK-MEL-5 > 100 µM | SK-OV-3 > 100 µM | UO-31 > 100 µM

CCCN(CCC)c1c([N+](=O)[O-])cc(C(N)=O)cc1[N+](=O)[O-]
inactive: A549 81.8 µM | CAKI-1 37.2 µM | HT-29 > 100 µM | IGROV-1 > 100 µM | KM12 > 100 µM | M14 > 100 µM | NCI-H226 > 100 µM | OVCAR-8 92.9 µM | RPMI-8226 > 100 µM | SF-295 > 100 µM | SK-MEL-5 1.16 µM | SK-OV-3 58.3 µM | UO-31 65.5 µM

Cc1nc2c(N)ncnc2o1
inactive: A549 > 100 µM | CAKI-1 > 100 µM | HOP-62 > 100 µM | HT-29 > 100 µM | IGROV-1 > 100 µM | KM12 > 100 µM | LOX IMVI > 100 µM | M14 > 100 µM | NCI-H226 > 100 µM | OVCAR-8 > 100 µM | SF-295 > 100 µM | SK-MEL-5 > 100 µM | SK-OV-3 > 100 µM | UO-31 > 100 µM

COc1cc(O)c2c(c1)C(=O)C=C(Cl)C2=O
inactive: A549 > 100 µM | CAKI-1 > 100 µM | HT-29 > 100 µM | IGROV-1 > 100 µM | KM12 > 100 µM | LOX IMVI > 100 µM | M14 > 100 µM | NCI-H226 28.2 µM | OVCAR-8 64.7 µM | RPMI-8226 > 100 µM | SF-295 > 100 µM | SK-MEL-5 87.1 µM | SK-OV-3 > 100 µM | UO-31 16 µM

Cc1nc2c(n1CCC(C)C)C(=O)c1ccccc1C2=O
inactive: A549 30.4 µM | HOP-62 18 µM | HT-29 20.5 µM | IGROV-1 22.3 µM | KM12 21.3 µM | LOX IMVI 14.7 µM | M14 20.1 µM | NCI-H226 45.2 µM | OVCAR-8 27.9 µM | SF-295 21.3 µM | SK-MEL-5 14.6 µM | SK-OV-3 38.4 µM | SR 4.71 µM | UO-31 24.8 µM

N#CC(C#N)=c1c2nsnc2c(=C(C#N)C#N)c2nsnc12
inactive: A549 3.6 µM | CAKI-1 1.86 µM | HOP-62 2.04 µM | HT-29 1.59 µM | KM12 1.85 µM | LOX IMVI 1.58 µM | M14 2.07 µM | NCI-H226 16.7 µM | OVCAR-8 1.69 µM | SF-295 1.89 µM | UO-31 1.84 µM

Cc1cc2c(=O)c3ccc(Cl)cc3[nH]c2c(C(=O)O)c1C
inactive: A549 > 100 µM | CAKI-1 > 100 µM | HOP-62 > 100 µM | HT-29 > 100 µM | IGROV-1 > 100 µM | KM12 32.4 µM | LOX IMVI > 100 µM | M14 > 100 µM | NCI-H226 > 100 µM | OVCAR-8 > 100 µM | RPMI-8226 > 100 µM | SF-295 > 100 µM | SK-MEL-5 > 100 µM | SK-OV-3 > 100 µM | UO-31 46.1 µM

C=CCN1CCC23c4c5ccc(O)c4OC2C(=NN=C2CCC4(O)C6Cc7ccc(O)c8c7C4(CCN6CC=C)C2O8)CCC3(O)C1C5 (stereo not drawn)
inactive: A549 21.4 µM | CAKI-1 44.5 µM | HOP-62 21.4 µM | HT-29 18.3 µM | IGROV-1 > 100 µM | KM12 21.2 µM | LOX IMVI 20 µM | M14 17.8 µM | NCI-H226 > 100 µM | OVCAR-8 25.6 µM | RPMI-8226 39.2 µM | SF-295 20.7 µM | SK-MEL-5 20.4 µM | SK-OV-3 37.5 µM | UO-31 > 100 µM

CC(C)C1COC(c2ccc3ccccc3c2-c2c(O[Si](C)(C)C(C)(C)C)ccc3ccccc23)=N1 (stereo not drawn)
inactive: A549 17.4 µM | CAKI-1 21.9 µM | HOP-62 18.8 µM | HT-29 15.5 µM | IGROV-1 20.2 µM | KM12 17.9 µM | LOX IMVI 19.7 µM | M14 15.8 µM | NCI-H226 11.8 µM | OVCAR-8 18 µM | RPMI-8226 14.7 µM | SF-295 17.2 µM | SK-MEL-5 16.7 µM | SK-OV-3 19.8 µM | UO-31 14.8 µM

Cc1ccccc1NC(=O)C(=O)c1c(O)c2ccc(O)cc2oc1=O
inactive: A549 > 100 µM | CAKI-1 > 100 µM | HOP-62 > 100 µM | HT-29 > 100 µM | IGROV-1 > 100 µM | KM12 > 100 µM | LOX IMVI > 100 µM | M14 > 100 µM | NCI-H226 > 100 µM | OVCAR-8 > 100 µM | RPMI-8226 > 100 µM | SK-MEL-5 > 100 µM | SK-OV-3 > 100 µM | UO-31 > 100 µM

CCOC(=O)C1N(S(=O)(=O)c2ccc(C)cc2)CCC12c1ccccc1N(C(C)=O)C2c1ccc(OC)c(OC)c1 (stereo not drawn)
inactive: A549 > 100 µM | CAKI-1 76.7 µM | HOP-62 > 100 µM | HT-29 > 100 µM | IGROV-1 > 100 µM | KM12 > 100 µM | LOX IMVI > 100 µM | M14 > 100 µM | NCI-H226 19.9 µM | OVCAR-8 > 100 µM | RPMI-8226 65.5 µM | SF-295 > 100 µM | SK-MEL-5 > 100 µM | SK-OV-3 > 100 µM | UO-31 42.7 µM

O=C(CCC(=O)C(C(=O)c1ccccc1)c1ccccc1)Nc1cccc(C(F)(F)F)c1 (stereo not drawn)
inactive: A549 > 100 µM | CAKI-1 > 100 µM | HT-29 > 100 µM | IGROV-1 > 100 µM | KM12 > 100 µM | LOX IMVI > 100 µM | M14 > 100 µM | NCI-H226 > 100 µM | OVCAR-8 > 100 µM | RPMI-8226 > 100 µM | SF-295 > 100 µM | SK-OV-3 > 100 µM | UO-31 > 100 µM

COC(=O)C(Cc1c[nH]c2ccccc12)NC(=O)C(Cc1c[nH]c2ccccc12)NC(=O)OCc1ccccc1 (stereo not drawn)
inactive: A549 17.8 µM | CAKI-1 19.9 µM | HOP-62 19.7 µM | HT-29 20 µM | IGROV-1 19.3 µM | KM12 19.1 µM | LOX IMVI 18.3 µM | M14 18.2 µM | NCI-H226 22.1 µM | OVCAR-8 17.9 µM | RPMI-8226 11.7 µM | SF-295 17.9 µM | SK-MEL-5 29.5 µM | SK-OV-3 19.7 µM | UO-31 19.3 µM
